Experimental data from patent US20230121926A1, “METHODS FOR TISSUE REGENERATION AND KITS THEREFOR” (THE BOARD OF TRUSTEES OF THE LELAND STANFORD JUNIOR …, priority 2020, published 2023).

Tests used:
human dermal fibroblasts = assay: scRNA-seq of strained human dermal fibroblasts in 3D collagen scaffolds; type: cell-based
From the text: Using this experimental system, in vivo dermal strain patterns were mimicked, imposing biaxial strain upon the fibroblasts, while also attenuating mechanotransduction in a subset of samples. The collagen scaffolds were enzymatically digested to obtain cellular suspensions of fibroblasts, which were then processed for scRNA-seq, as shown in FIGS. 2A and 2C. All single cell data were initially analyzed in a manner blinded to phenotype of origin. Following log-normalization, pooled data were subjected to semi-supervised Louvain-based clustering and embedded into UMAP-space (Seurat). Eight transcriptionally distinct subpopulations (cluster 0 to cluster 7) were identified among cells from the pooled data superset, as shown in FIG. 2D. When unblinded, considerable permissiveness among clusters were found across both phenotypes and biological replicates, consistent with the known heterogeneity among human dermal fibroblasts (FIG. 2D).
Fibroblast-populated 3D collagen scaffold experiments. Dermal fibroblasts were isolated from both porcine and human skin samples and cultured separately. Porcine skin was obtained from the unwounded (normal skin) areas of a euthanized red duroc pig. Human skin samples were obtained under the approved IRB (#54225) and collected from three surgical procedures; a breast mastectomy, an abdominoplasty, and a thighplasty (n=3 patients). Fibroblasts were isolated by mechanical and enzymatic digestion and cultured under standard conditions until passage 3. The primary fibroblast cultures were then used to create fibroblast-populated collagen hydrogels at final concentration of 200 k cells/mL and 2 mg/mL collagen (PureCol, Advanced Biomatrix, San Diego, Calif.), following protocols as described in Chen, K. et al, “Role of boundary conditions in determining cell alignment in response to stretch”, PNAS 115, 986-991, doi:10.1073/pnas.1715059115 (2018), the entire disclosure of which is hereby incorporated by reference in its entirety. In brief, collagen scaffolds were formulated in a cruciform shape in petri dishes with a PDMS coating (˜4 mm) on the bottom (FIG. 2B). Pins were pushed through the hydrogel cruciform arms to constrain the scaffolds in both directions for a 24h pre-culture period before being subjected to either no strain, 10% equibiaxial strain, or strain+FAKI treatment for an additional 48 hours (FIGS. 2A-2B, FIG. 9A). FAKI treatment was administered by adding 20 mM FAKI in DMSO into the culture media of the scaffolds to achieve a final concentration of 10 micromolar FAKI for 48 hours. Strain was imposed by removing the anchoring pins, manually extending the hydrogel cruciform arms, and pushing the pins back to hold the arms in the new, extended position. Nine Titanium (IV) oxide paint dots (Sigma-Aldrich) were applied on the surface of the central region of the gel (boxes in FIG. 9A) to track and quantify the imposed strains. A digital camera was used to image the markers before and after strain. Photographs of marker position were used to compute a single homogenous deformation gradient tensor F that provided the least-squares best fit mapping of the 9 marker positions from the undeformed to deformed positions by solving the overdetermined matrix equation: […]
Single cell barcoding, library preparation, and single cell RNA sequencing. After two days of increased (induction of strain) or inhibited (induction of strain+FAKI) mechanotransduction, collagen scaffolds were micro-dissected and enzymatically digested to obtain cellular suspensions of human fibroblasts for droplet-based microfluidic single cell RNA sequencing (scRNA-seq) using the 10× Chromium Single Cell platform (FIG. 2C) (Single Cell 3′ v3, 10× Genomics, USA). A droplet of the cell suspensions, reverse transcription master mix, and partitioning oil was loaded onto a single cell chip and processed on the Chromium Controller. […]

[1] = Systemic penetration of topically applied FAKI (mass spectrometry of peripheral blood); type: in vivo, pig; details: topical, approximately 7-10% of total body surface area, three pigs
Experimental: FIG. 6B. Acute, systemic, and implantation toxicity testing of FAKI hydrogel in the porcine model. Mass spectrometry of peripheral blood samples of FAKI-treated pigs was performed to assess systemic penetration of topically applied FAKI covering approximately 7-10% of the total body surface area relative to serum FAKI levels after oral administration of FAKI from a human study. Serum FAKI concentrations via localized delivery were negligible in three independent experiments collected from three different pigs.

[2] = Dose of VS-6062 delivered to porcine fresh wounds (tissue level by wound depth); type: in vivo, red Duroc pigs
Experimental: Porcine deep partial-thickness excisional wound model: Prior to operation, animals were administered oral amoxicillin 10 mg/kg for 24 hours. General anesthesia was administered by Veterinary Services personnel and was established with intramuscular telazol 6-8 mg/kg, administered once as a pre-anesthetic. Animals were then intubated using an endotracheal tube and maintained on 1.5-3% of inhaled isoflurane throughout the procedure. The hair on the back was clipped and skin was cleansed initially with Betadine© solution following by a 70% alcohol rinse. Excisional wounds were created with a standard electric Zimmer dermatome (Zimmer Biomet, Warsaw, Ind.). Up to eight wounds, approximately 5 cm×5 cm in size, were created on each lateral flank, with 3-5 cm intervals between wounds (FIG. 1A). Multiple dermatome passes were performed to create deep partial-thickness wounds of uniform 0.07 inch depth. The wounds were randomly assigned to receive either FAKI hydrogel (W_IF), blank hydrogel (‘placebo’, W_H), or no hydrogel (wounded control, W) (n=6-9 wounds per condition). […] In a time-dependent study, the amount of VS-6062 detected at approximately 0.5 mm wound depth over 24 hours ranged from 30-100 microG/g tissue by weight. The amount of VS-6062 detected beyond 1 mm wound depth was less than 5 microG/g tissue.

dermal fibroblasts = assay: Fibroblast-populated 3D collagen scaffold under strain (alignment, contraction); type: cell-based, human
Experimental: Mechanotransduction shifts human fibroblast heterogeneity. […] To confirm the translational potential of the results in the porcine model on the role of mechanotransduction in the fibrotic response, dermal fibroblasts isolated from human surgical patients were then evaluated. Cells were seeded within 3D collagen scaffolds at densities of 2.0 mg/mL collagen and 200,000 cells/mL (FIG. 2A). To artificially increase tissue forces, the mechanical strain applied to fibroblasts was precisely manipulated as described in Chen, K. et al, “Role of boundary conditions in determining cell alignment in response to stretch”, PNAS 115, 986-991, doi:10.1073/pnas.1715059115 (2018), the entire disclosure of which is hereby incorporated by reference in its entirety, and shown in FIG. 2B and FIG. 9A. […] The efficacy of this in vitro system to mimic the fibrogenic phenotype observed in healing wounds and resultant scar was confirmed. […] Fibroblast reorganization of ECM drives collagen remodeling and development of long, aligned collagen fibers characteristic of fibrosis. […]
Fibroblast-populated 3D collagen scaffold experiments. […] Nine Titanium (IV) oxide paint dots (Sigma-Aldrich) were applied on the surface of the central region of the gel (boxes in FIG. 9A) to track and quantify the imposed strains. […]

[3] = tested on: deep partial-thickness excisional wounds; assay: Porcine deep partial-thickness excisional wound model; type: in vivo, red Duroc pigs
Experimental: Porcine deep partial-thickness excisional wound model: Prior to operation, animals were administered oral amoxicillin 10 mg/kg for 24 hours. General anesthesia was administered by Veterinary Services personnel and was established with intramuscular telazol 6-8 mg/kg, administered once as a pre-anesthetic. Animals were then intubated using an endotracheal tube and maintained on 1.5-3% of inhaled isoflurane throughout the procedure. The hair on the back was clipped and skin was cleansed initially with Betadine© solution following by a 70% alcohol rinse. Excisional wounds were created with a standard electric Zimmer dermatome (Zimmer Biomet, Warsaw, Ind.). Up to eight wounds, approximately 5 cm×5 cm in size, were created on each lateral flank, with 3-5 cm intervals between wounds (FIG. 1A). Multiple dermatome passes were performed to create deep partial-thickness wounds of uniform 0.07 inch depth. The wounds were randomly assigned to receive either FAKI hydrogel (W_IF), blank hydrogel (‘placebo’, W_H), or no hydrogel (wounded control, W) (n=6-9 wounds per condition). Animals were given oral amoxicillin 10 mg/kg post-operatively twice a day for 5 days total. Wound dressings, including FAKI hydrogel patches, were changed every other day for the first three weeks after initial injury until POD 21 (FIG. 1C). Thereafter, dressings were changed twice per week until POD 90. Animals were subject to short-term sedation for each dressing change. The actual dose delivered to the wound was tested on porcine fresh wounds (red Duroc pigs). In a time-dependent study, the amount of VS-6062 detected at approximately 0.5 mm wound depth over 24 hours ranged from 30-100 microG/g tissue by weight. The amount of VS-6062 detected beyond 1 mm wound depth was less than 5 microG/g tissue. Wound closure, visual scar assessment, and viscoelastic analyses. Wounds were monitored photographically at each dressing change. Days to wound closure, defined as complete re-epithelialization without open wound area, were determined for each wound based on gross photographic assessment. Quantification of scar metrics were performed using a Visual Analog Scale (VAS) for 5 components (vascularity, pigmentation, observer comfort, acceptability, and contour) by a panel of four blinded scar experts. Total scores are calculated as a composite of all 5 scores; lower scores indicate improved scar appearance. A Cutometer (Dual MPA 580, Courage+Khazaka Electronic, Köln, Germany) was used to evaluate the firmness and elasticity of the healing wounds at POD 60. The cutometer measures the vertical deformation of the skin surface by applying a negative pressure (suction) through a small circular diameter (2 mm probe). Cutometer assessment is the gold standard to measure viscoelasticity in human patients. Deformation (suction) for two seconds followed by two seconds of relaxation (no suction) is applied for three cycles. The elasticity ratio (ability for tissue to return back to original setpoint) was measured during the relaxation period (R2 metric). Histological and immunofluorescent staining. […] Masson's Trichrome staining and Picrosirius Red staining were performed. Picrosirius Red-stained images were captured using polarized light microscopy (Leica DM5000 B upright microscope). Collagen fibers were also visualized using Second Harmonic Generation (SHG) on a Leica SP5 upright confocal multi-photon microscope using a […]. SHG images were captured with an excitation wavelength of 860 nm, a pulse length of approximately 100 fs, and an emission filter centered at 445 nm with a 20-nm bandwidth. Forward SHG was used to image fibroblasts and backward SHG was used to image in vivo tissue sections. Analysis of fiber alignment was performed on Picrosirius Red-stained images at 40× magnification using the custom software MatFiber, an intensity-gradient-detection algorithm for analysis of overall alignment of collagen fibers and stress fibers from multiple samples. […]

[4] = 10% strain, 10 micromolar FAKI, 48 hours
[5] = POD 60, versus untreated wounds
[6] = porcine wound tissue, treated vs untreated

serum FAKI concentrations via localized delivery [1]: negligible
amount of VS-6062 detected in wound tissue ([2]; approximately 0.5 mm wound depth, over 24 hours): 30-100 microG/g tissue by weight
amount of VS-6062 detected in wound tissue ([2]; beyond 1 mm wound depth): less than 5 microG/g tissue
Structure (SMILES): CN(c1ncccc1CNc1nc(Nc2ccc3c(c2)CC(=O)N3)ncc1C(F)(F)F)S(C)(=O)=O [VS-6062]
expression of AIMP3 (human dermal fibroblasts; [4]): increased
expression of MMP1 (human dermal fibroblasts; [4]): increased
expression of Mmp10 (human dermal fibroblasts; [4]): significantly upregulated
transcription of COL1A1 (human dermal fibroblasts; [4]): strongly reduced
transcription of COL3A1 (human dermal fibroblasts; [4]): strongly reduced
strain-induced pro-fibrotic, myofibroblast and mechanotransduction gene expression (ACTA2, PDGFRA, RUNX1, ZEB2, MAPK1, PI3KR1, EGFR, RAC1, YAP1) (human dermal fibroblasts; strained fibroblasts with FAKI): abrogated nearly all of these fibrotic signaling changes
fibroblast alignment under uniaxial strain (dermal fibroblasts; 10% uniaxial strain, 10 micromolar FAKI): aligned multi-directionally
contraction assay: fibroblast remodeling of the ECM environment (dermal fibroblasts; collagen scaffolds): hinders the fibroblasts from remodeling (R) the ECM environment
regeneration of secondary structures (hair follicles, cutaneous glands) ([3]; Masson's Trichrome, POD 90 and POD 180): regrowth of hair follicles and other cutaneous glands
wound elasticity (cutometer) [3, 5]: increased elasticity
wound firmness (cutometer) [3, 5]: decreased firmness
intradermal adipocytes (Perilipin A staining) ([3]; POD 90, deep dermal layer): regeneration of Perilipin A-positive intradermal adipocytes
healing earlier than wounds treated with standard dressings or empty hydrogels ([3]; controls healed after POD 24): more than 10 days
gross appearance of the treated wounds ([3]; difference in scarring evident as early as POD 40): normal appearing skin
collagen structure of healed wounds (Picrosirius Red) ([3]; pig, in vivo): basket weave-like collagen structure characteristic to unwounded porcine skin
protein expression of Collagen I (immunofluorescence) [3, 6]: decreased
protein expression of Collagen III (immunofluorescence) [3, 6]: decreased
protein expression of MMP1 (immunofluorescence) [3, 6]: increased
protein expression of MMP3 (immunofluorescence) [3, 6]: increased
protein expression of alpha SMA (immunofluorescence) [3, 6]: decreased
time at which wounds were fully healed ([3]; sustained release hydrogel scaffold, 5x5 cm wounds): 14±2.3 postoperative day (POD)
CT-FIRE fiber count ([3]; trend): return number of fibers closer to unwounded skin
